Measured values reported in patent US20230128252A1, “PHARMACEUTICAL COMPOSITIONS” (Shenzhen Pharmacin Co., Ltd., priority 2020, published 2023).
Converted amounts (≈) assume the structure as drawn.

Assays:
[1] = tested on: imiquimod-induced psoriasis like mouse model; test: imiquimod-induced psoriasis like mouse model, PASI method; assay type: in vivo, C57BL/6J mice; conditions: Formulations 1-3, topical
Excerpt: Fifty C57BL/6J mice were random divided into 5 groups, naïve group, model group, Formulation 1-3 groups. All mice were shaved on the back. Naïve group was the negative group and as the blank control. The other four groups were locally applied with 5% imiquimod cream (sold under the tradename Aldara®) once a day for a week. […] In the last three days, the changes of skin lesions were observed and evaluated by PASI method. PASI method: the scores of erythema, scale and infiltration thickening in the skin lesions were scored respectively, and the sum of the three scores was the total score. PASI scoring standard: 0, none; 1, mild; 2, moderate; 3, severe; 4, extremely severe.

[2] = pharmacokinetics and tissue distribution after single-dose topical application in minipigs; assay type: in vivo, Bama minipigs; conditions: Formulation 11 (0.03%) single topical application
Description: Studies were performed to evaluate the pharmacokinetics and tissue distribution after a single-dose topical application of Formulation 11 (clofazimine 0.03%) in Bama minipigs. 24 Bama minipigs were divided into 6 groups (n=4), each group of minipigs received a single topical application of Formulation 11 (0.03%) at a dose of 1.5 mg ointment/cm^2. Blood samples, epidermis, dermis, subcutaneous tissue and subcutaneous muscle were collected at 0.5, 4, 24, 48, 72 and 96 hours (one time point for one group) after drug application. A validated LC-MS/MS method was used to determine the concentration of clofazimine in plasma, epidermis, dermis, subcutaneous tissues and subcutaneous muscle and the pharmacokinetic parameters were calculated (the standard curve range of clofazimine is 0.0100˜10.0 ng/mL).

[3] = tested on: chronic discoid lupus erythematosus; conditions: human clinical study; cited from earlier work
[4] = Solubility of clofazimine in various solvents; conditions: 25 °C, thermodynamic from solid
Description: Clofazimine was added to various solvents (2-5 mL) in a 10 mL glass vial, at 25° C., with stirring. […] This cycle was repeated until no further dissolution was observable. The suspension was then centrifuged and the supernatant filtered by microfiltration.

For `CC(C)/N=c1\cc2n(-c3ccc(Cl)cc3)c3ccccc3nc-2cc1Nc1ccc(Cl)cc1` [Clofazimine, N,5-bis(4-chlorophenyl)-3-propan-2-ylimino phenazin-2-amine], the “treatment effect on the imiquimod-induced psoriasis like mouse model” value [1] was “confirmed the treatment effect”, the “median time to peak dermal concentration” value [2] was “about 4 h” and the “median time to peak epidermal concentration” value [2] was “about 0.5 h”. The “median time to peak subcutaneous muscle concentration” value [2] was “about 0.5 h”, the “median time to peak subcutaneous tissues concentration” value [2] was “about 4 h” and the tissue distribution [2] was “mainly distributed in the epidermis and dermis, and not absorbed into blood”. For the same molecule, the “remission of chronic discoid lupus erythematosus” value [3] was “a majority of patients showed remission”, the solubility at 24 h ([4]; organic solvent or mixture) was 7480 µg/mL (≈ 15.8 mM) and the solubility at 24 h ([4]; solvent, oil or lipid, Solubility, Castor oil) was 11000 µg/mL (≈ 23.3 mM). The solubility at 24 h ([4]; solvent, oil or lipid, Solubility, Coconut oil) was 5100 µg/mL (≈ 10.8 mM), the solubility at 24 h ([4]; solvent, oil or lipid, Solubility, Corn oil) was 5800 µg/mL (≈ 12.3 mM) and the solubility at 24 h ([4]; solvent, oil or lipid, Solubility, Glyceryl monooleate) was 8860 µg/mL (≈ 18.7 mM). It also gave a solubility at 24 h ([4]; solvent, oil or lipid, Solubility, Isopropyl myristate) of 8510 µg/mL (≈ 18 mM), a solubility at 24 h ([4]; solvent, oil or lipid, Solubility, Soybean oil) of 5100 µg/mL (≈ 10.8 mM) and a solubility at 24 h ([4]; solvent, organic solvent or mixture, Solubility, Ethanol) of 950 µg/mL (≈ 2.01 mM). It also gave a solubility at 24 h ([4]; solvent, organic solvent or mixture, Solubility, Glycerol) of 490 µg/mL (≈ 1.04 mM), a solubility at 24 h ([4]; solvent, organic solvent or mixture, Solubility, Labrasol) of 25400 µg/mL (≈ 53.6 mM) and a solubility at 24 h ([4]; solvent, organic solvent or mixture, Solubility, Laurocapram) of 46700 µg/mL (≈ 98.7 mM). For the same molecule, the solubility at 24 h ([4]; solvent, organic solvent or mixture, Solubility, Oleic acid polyethylene glycol glyceride) was 12200 µg/mL (≈ 25.8 mM), the solubility at 24 h ([4]; solvent, organic solvent or mixture, Solubility, PEG 400, 25° C.) was 9510 µg/mL (≈ 20.1 mM) and the solubility at 24 h ([4]; solvent, organic solvent or mixture, Solubility, Polyglycerol fatty acid ester) was 4960 µg/mL (≈ 10.5 mM). For the same molecule, the solubility at 24 h ([4]; solvent, organic solvent or mixture, Solubility, Polyoxyethylene hydrogenated castor oil) was 8670 µg/mL (≈ 18.3 mM), the solubility at 24 h ([4]; solvent, organic solvent or mixture, Solubility, Propane 1,2-diol) was 420 µg/mL (≈ 0.887 mM) and the solubility at 24 h ([4]; solvent, organic solvent or mixture, Solubility, Transcutol) was 21600 µg/mL (≈ 45.5 mM). For the same molecule, the solubility at 24 h ([4]; solvent, organic solvent or mixture, Solubility, Tween 20, 25° C.) was 7400 µg/mL (≈ 15.6 mM) and the solubility at 24 h ([4]; solvent, organic solvent or mixture, Solubility, Tween 80, 25° C.) was 10100 µg/mL (≈ 21.3 mM).
